Data taken from patent US9579406B2, “Phospholipid ether analogs as agents for detecting and locating cancer, and methods thereof” (Cellectar, Inc., priority 2004, dated 2017).

Tests used:
[1] = test system: non-small cell lung cancer; assay: Planar gamma-camera scintigraphy with 131I-NM-404 in NSCLC patients; conditions: time points examined
Procedure: The preparation dispensed by the Nuclear Pharmacy will be certified as sterile and pyrogen-free. The subject will be monitored for adverse reactions during and after the infusion. Vital signs will be checked immediately after the infusion, and at 60 minute intervals up to four hours post-injection. They will be observed for adverse events throughout this time. […] Vital signs will be monitored at these times. Any adverse reactions experienced by the subjects will be recorded.

MAT LyLu cells = assay: Gamma camera scintigraphy in rat Dunning R3327 (MAT LyLu) prostate cancer model
Text: The MatLyLu (Dunning R3327 rat) model, a rat prostate tumor line, was used specifically to screen 9 specific analogs prior to entering them into control for dosimetry and tumor-bearing animals for determining tumor/background ratios.
In order to expedite the screening process and minimize the number of tumor bearing animals utilized in multiple time point tissue distribution studies, new radioiodinated homologs were imaged by gamma camera scintigraphy in the rat Dunning R3337 (MAT LyLu strain) prostate cancer model. […] Gamma camera images were obtained at multiple time points including 24 and 48 hours post injection.
The new PLE analogs were synthesized and radiolabeled with ^125I for initial image analysis in Copenhagen rats bearing Dunning R3327 prostate tumors.

[2] = test system: A549 lung, PC-3 prostate, c-myc pancreatic tumors; assay: microPET imaging in lung, prostate and pancreatic mouse tumor models; type: in vivo
Text: Human pharmacokinetic studies have confirmed this finding as only 4% of the agent is cleared renally within 4 days of iv injection (majority is excreted via GI route).

[3] = Acute GLP toxicology, single iv dose, 14 days observation, rats; type: in vivo
Procedure: Drug vehicle and drug product were provided to Dr. Kostyniak by Dr. Raymond Counsell of the University of Michigan for testing as described in the appended synopses of Study 27 and Study 28. […] This toxicology study was performed under GLP conditions.
This toxicology study was performed under GLP conditions.
The control and test rats were injected intravenously in the lateral tail vein. The rats were injected with the test or control article intravenously at 2 ml/kg of body weight using a 25 gauge needle and a 1-ml syringe. The injections were given by alternating rats from the control group with rats from the test group. The injections were given cautiously over a 30 second to one minute time interval. The injection to control rat #27-01 was given at 9:03 am and last injection to test rat #27-16 was given at 11:01 am.
The rats were observed by LAF personnel for signs of acute toxicity from the time of injection until […]. The rats were weighed five (5) times a week (Monday through Friday) and their body weights, recorded in […]. On Dec. […] A heart puncture was then performed using a 20 gauge needle and a 10 ml syringe to collect the blood samples for the hematological CBC and the clinical blood chemistries. The rats were exsanguinated to cause death. The thymus, heart, lungs, spleen, kidneys, liver, brain, and testes were collected, examined grossly, weighed and sectioned for pathology. The tissue samples (except thymus) were placed in jars of “Z-fix” fixative for histology.
Sixteen (16) Sprague-Dawley rats were received from Harlan-Sprague Dawley, Indianapolis, Ind. […] They were housed at the Laboratory Animal Facility and given food and water ad lib. Each rat was given a two-part number starting with 27 (the study number) and followed by a ‘unique’ number of ‘01’ to ‘16’ (numerical). Each rat was ear punched in the right ear with the unique number of ‘01’ to ‘16’. The control rats were numbered from #27-01 to #27-08 and the test rats were numbered from #27-09 to #27-16. The unique numbers were also applied to each cage indicating which rats were housed within that cage. There were four cages of control rats and four cages of test rats. […] The two groups of eight (8) rats were established by random assignment. The rats were weighed daily until the termination of the study on Day 14.
Safety: On Day 14, the blood samples for both groups will be analyzed for hematology and clinical chemistry. Additionally, the following organs will be removed for pathology report and histology slides: brain, lung, liver, heart, kidney, spleen, and testes. A compilation chart of organ weights with organ/weight ratios for each rat may be compiled.

[4] = as above; type: in vivo; conditions: female rats
Glioma L9 and CNS-1 = assay: Tumor models examined with NM404 (Table 2); type: in vivo, Rat xenograft
Text: (§1) NM404 has now been evaluated in 27 animal tumor models, including several lung, and it is clear that once the agent enters tumor cells, it reaches a metabolic dead end and becomes trapped. […] NM404 is also retained in spontaneous murine lung tumors (FIG. 13). Using ^125I-labeled NM404, the inventors have been able to image mammary and prostate tumors in mice in excess of 60 days. […] Imaging and tissue distribution studies performed in mouse models aimed at determining the uptake characteristics in a wide variety of tumor models are summarized in Table 2.
Although tumor retention can be explained by a lack of metabolic phospholipase enzymes in the tumor cell membranes, the exact mechanism of tumor cell uptake is unknown. […] The inventors are currently evaluating the selectivity of NM404 in a unique mouse tumor model developed at Wisconsin, wherein both preneoplastic hyperplasias and malignant adenocarcinomas form spontaneously in the mammary gland. […] If this initial observation is validated, then via genomic and or proteomic analysis the inventors may be able to identify a key genetic difference between malignant tumors and their non malignant predecessor cells. This could identify a completely new molecular therapeutic target that may be universal for all types of cancer.

[5] = test system: human RL-251 adrenal tumor xenograft; assay: Time course in human RL-251 adrenal cancer xenograft; set-up: species or system SCID mouse; conditions: mouse, in vivo
Text: as §1

[6] = test system: mammary and intestinal tumors; assay: Apparent therapeutic responses in Apc Min/+ mammary and intestinal tumor mice; type: in vivo, Apc^Min/+ mouse
Text: During the course of mouse tumor uptake and retention studies with “imaging” doses (15-20 μCi/20 g mouse) of ^125I-labeled NM404, several apparent therapeutic responses have been observed (unpublished results). […] Some of these animals also lost all hair above larger mammary tumors at around 8 days after injection. Moreover, these mice also get intestinal tumors and usually suffer from intestinal bleeding resulting in severe anemia, which renders their feet white. Dr. Moser noted that the feet of these mice had reverted to a pink color around 5 days after a single injection of NM404. […] Another compelling example of tumor regression is illustrated in FIG. 6. Two litter mates each received SCC1 and SCC6 xenografts in their left and right flanks, respectively. One mouse received a single injection of ^125I-NM404 (20 μCi). […] These coincidental findings were reconfirmed in two separate age-matched groups each involving more than 6 mice. Although these observations with ^125I-NM404 are anecdotal at this point, they do seem to strongly indicate potential for radiotherapy applications particularly if labeled with iodine-131. Ongoing quantitative tumor uptake and retention studies in several animal tumor models will also provide sufficient data to initiate a comprehensive dosimetry analysis for this agent in order to estimate its true radiotherapeutic potential.

[7] = male rats, 2 mg/ml at 2 ml/kg iv, 14 days
[8] = male rats, 2 mg/ml at 2 ml/kg iv, day 14

## C[N+](C)(C)CCOP(=O)([O-])OCCCCCCCCCCCCCCCCCCc1ccc(I)cc1 [NM-404, 18-(4-iodophenyl)-octadecylphosphocholine]
[1]
  urinary bladder radioactivity: lack of urinary bladder radioactivity
MAT LyLu cells; 125I-labeled
  liver activity and tumor retention in initial image screen: much lower liver activity than its predecessor NM324 but also maintained prolonged tumor retention
MAT LyLu cells; tumor-bearing rats, 24 and 48 hours post injection
  tumor uptake and liver/abdominal radioactivity by gamma camera imaging: readily visualized
[2]; after injection
  time to tumor uptake: ≤ 6 h
[2]; mouse, in vivo
  tumor avidity: significant tumor avidity regardless of location in the body
[3]; [7]
  acute toxicologic effects (conclusion): No acute toxicologic effects attributable to the test article had been found
  behavior: No unusual behavior was noted
  mean body weights, test versus control group: not significantly different
  tail vein injection site reactions: no adverse tissue reactions were noted
[3]; [8]
  clinical blood chemistries and hematology, t-test versus control: no significant differences found
  gross examination of tissues: No gross lesions were noted
  histopathology of organs: no changes in the histopathology of the organs examined that can be attributed to the administration of the test material
[3]; male rats, 4 mg/kg (Study 27)
  toxic effects: no significant toxic effects were noted
[3]; unlabeled, 1200 times the anticipated imaging mass dose
  acute toxicity: no acute toxicities were found
[4]
  adverse effects: no adverse effects attributable to the test article were noted
[4]; 0.04 mg/kg (Study 31)
  toxic effects: no significant toxic effects were noted
Glioma L9 and CNS-1
  NM404 Tumor Localization: Yes (Localization defined as >5% injected dose per gram tumor basis based on tissue distribution data)

## C[N+](C)(C)CCOP(=O)([O-])OCCCCCCCCCCCCCCCCCCc1ccc([125I])cc1 [Compound I-125-NM404]
[5]
  tumor retention: retention is evident even after 20 days
[6]; after 21 days, both intestinal models
  survival versus untreated litter mates: easily outlived their untreated litter mates
[6]; single injection
  intestinal tumors remaining at dissection: only a very few, if any
[6]; single iv injection, 15-20 μCi/20 g mouse
  mammary tumor growth: tumor growth remains static
